Where two headings read alike, the source gives them in different places.
How the values were obtained:
MDA-MB-231 cells = test: MTT cell proliferation assay; assay type: cell-based; conditions: Homo sapiens; MDA-MB-231 cell line; read-out: MTT Assay IC50, MDA-MB-231
Method: (§1) The MTT cell proliferation assay was used to study the cytotoxic properties of the compounds. The assay was performed according to the method described by Roche Molecular Biochemicals, with minor modifications. The assay is based on the cleavage of the tetrazolium salt, MTT, in the presence of an electron-coupling reagent. The water-insoluble formazan salt produced must be solubilized in an additional step. Cells grown in a 96-well tissue culture plate were incubated with the MTT solution for approximately 4 hours. After this incubation period, a water-insoluble formazan dye formed. After solubilization, the formazan dye was quantitated using a scanning multi-well spectrophotometer (ELISA reader). […] The cells were seeded at 5,000-10,000 cells in each well of 96-well plate in 100 μL of fresh culture medium and were allowed to attach overnight. The stock solutions of the compounds were diluted in 100 μL cell culture medium to obtain eight concentrations of each test compound, ranging from 1 nM to 30 μM. […] All optical densities were measured at 490 nm using a Vmax Kinetic Microplate Reader (Molecular Devices). In most cases, the assay was performed in duplicate and the results were presented as a mean percent inhibition to the negative control±SE. The following formula was used to calculate the percent of inhibition: Inhibition (%)=(1−(ODo/OD))×100.
(§2) The M24 cell line is derived from human melanoma cells. The U2OS cell line is a human osteosarcoma cell line expressing wild type p53 and Rb, but lacking p16. The MM1S cell line is a multiple myeloma cell line; the parent cell line, MM.1, was established from peripheral blood of a multiple myeloma patient who had become resistant to steroid-based therapy. The RPMI8226 cell line is derived from human B lymphocyte cells. NHDF cells are normal human dermal fibroblast cells. The MRC-5 cell line is derived from normal lung tissue of a fetus. The PC3 cell line is a human prostate cancer cell line. The DU-145 cell line is a human prostate cancer cell line. The MDA-MB-231 cell line is a human breast adenocarcinoma cell line. The MDA-MB-468 cell line is a human breast carcinoma cell line. HL-60 cells are human promyelocytic leukemia cells. Hep G2 cells are human hepatocellular carcinoma cells. HEP 3B cells are human hepatocellular carcinoma cells. The DLD-1 cell line is a colorectal adenocarcinoma cell line. The HCT-15 cell line is a human colon carcinoma cell line. The Colo-205 cell line is derived from a human adenocarcinoma of the colon. The LoVo cell line is a human colon adenocarcinoma cell line.

Z138 cells = test: MTT cell proliferation assay; assay type: cell-based; conditions: Homo sapiens
Outline: (§3)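 5,000-10,000 cells/well, overnight attach; 8 conc., 1 nM–30 μM; MTT ~4 h; formazan solubilized, OD 490 nm; % inhibition = (1−(ODo/OD))×100 vs neg. control; mostly duplicate, mean±SE.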

3T3 cells = test: MTT cell proliferation assay; assay type: cell-based; conditions: Mus musculus
Outline: as §3

MS751 cells = test: MTT cell proliferation assay; assay type: cell-based; conditions: Homo sapiens
Outline: as §3

Molt-4 xenografts = test: Molt-4 T-ALL xenograft in SCID mice; assay type: in vivo, mouse; conditions: 100 mg/kg PO twice daily (BID)
Method: In this study, the impact of Compounds 667 and 728 on tumor growth was tested using the Molt-4 T-ALL cancer xenograft model in SCID mice. MOLT-4 (CRL-1582) acute lymphoblastic leukemia cells were obtained from ATCC. These cells were grown in RPMI-1640 medium supplemented with 10% fetal bovine serum, 1% penicillin and streptomycin. Cells were sub-cultured by transferring floating cells to a new flask and trypsinizing adherent cells before subculturing at a ratio of 1:4. Molt-4 cells were harvested by centrifugation and counted using a hemocytometer. Cells were resuspended in PBS at a 5×10^7 cells per mL. Cells were placed on ice and mixed with an equal volume of Matrigel (BD Biosciences CB-40234). This mixture was kept on ice and injected into the left flank of mice in a volume of 0.2 mL, equivalent to 5×10^6 cells per mouse. Twenty-four (24) CB-17 SCID mice were inoculated subcutaneously in the left flank with the Molt-4 cells. Treatment was initiated when the tumors reached a mean volume of approximately 100 mm^3. Mice were allocated to three (3) groups of eight (8) mice. Mice were treated with vehicle, Compound 667 or Compound 728. Compounds 667 and 728 (100 mg/kg) were given orally (PO) twice daily (BID) beginning on Day 1. Animal weights and conditions were recorded daily, and tumors were measured on Mondays, Wednesdays and Fridays.

HEP 3B cells = test: MTT cell proliferation assay; assay type: cell-based; conditions: Homo sapiens, Hep3B; HEP 3B cell line; read-out: MTT Assay IC50, HEP 3B
Method: as §1, §2

MRC-5 cells = test: MTT cell proliferation assay; assay type: cell-based; conditions: Homo sapiens, MRC5; MRC-5 cell line
Method: as §1, §2

Hep G2 cells = test: MTT cell proliferation assay; assay type: cell-based; conditions: Homo sapiens, HepG2; Hep G2 cell line; read-out: MTT Assay IC50, Hep G2
Method: as §1, §2

MM1S cells = test: MTT cell proliferation assay; assay type: cell-based; conditions: Homo sapiens, MM1.S
Method: as §1, §2

HL-60 cells = test: MTT cell proliferation assay; assay type: cell-based; conditions: Homo sapiens
Method: as §1, §2

RPMI8226 cells = test: MTT cell proliferation assay; assay type: cell-based; conditions: Homo sapiens, RPMI-8226
Method: as §1, §2

MDA-MB-468 tumors = test: Antibody staining of resected MDA-MB-468 tumors from treated mice; assay type: in vivo, mouse; conditions: mice bearing MDA-MB-468 tumors; 30 mg/kg orally every day for three weeks
Method: Mice bearing MDA-MB-468 tumors were treated for three weeks with 30 mg/kg Compound 525 orally every day. Tumors were resected from the mice and fixed in buffered formalin and put into paraffin blocks. The blocks were sectioned and stained with antibodies against Ki67, Apotag, c-Myc, p-S473-Akt1 or p-S450-Akt1. The cells were imaged with a Nikon microscope.

[1] = Z-138, Z138 cells, approximately 64-72 hours incubation, read-out: MTT Assay IC50 Z-138
[2] = NIH3T3, approximately 64-72 hours incubation, read-out: MTT Assay IC50 3T3
[3] = MS751, MS751 cells, approximately 64-72 hours incubation, read-out: MTT Assay IC50 MS-751
[4] = Z-138, Z138 cells, approximately 64-72 hours incubation, read-out: MTT Assay IC50, Z-138
[5] = NIH3T3, approximately 64-72 hours incubation, read-out: MTT Assay IC50, 3T3
[6] = MS751, MS751 cells, approximately 64-72 hours incubation, read-out: MTT Assay IC50, MS-751

CC1(C)COCCN1C(=O)c1ccc(-c2cc(C(F)(F)F)c3oc(CNC(=O)/C=C/c4ccc(N)nc4)cc3c2)cc1 [Compound 517, (E)-3-(6-aminopyridin-3-yl)-N-((5-(4-(3,3-dimethylmorpholine-4-carbonyl)phenyl)-7-(trifluoromethyl)benzofuran-2-yl)methyl)acrylamide]
IC50 (MDA-MB-231 cells): 100 to 5000 nM | IC50 (Z138 cells; [1]): 100 to 5000 nM | IC50 (3T3 cells; [2]): > 10000 nM | IC50 (MS751 cells; [3]): 100 to 5000 nM

Nc1ccc(/C=C/C(=O)NCc2cc3cc(-c4ccc(C(=O)N5CCC(F)(F)CC5)cc4)cc(-c4ccc(F)cc4)c3o2)cn1 [Compound 728, (E)-3-(6-aminopyridin-3-yl)-N-((5-(4-(4,4-difluoropiperidine-1-carbonyl)phenyl)-7-(4-fluorophenyl)benzofuran-2-yl)methyl)acrylamide]
IC50 (Z138 cells; [4]): < 100 nM | IC50 (3T3 cells; [5]): 100 to 5000 nM | IC50 (MS751 cells; [6]): < 100 nM | median tumor volume of Molt-4 xenografts (as a percentage of pre-dose tumor volume) (Molt-4 xenografts): tumor growth inhibition

Nc1ccc(/C=C/C(=O)NCc2cc3cc(-c4ccc(C(=S)N5CCC(F)(F)CC5)cn4)cc(C(F)(F)F)c3o2)cn1 [Compound 667, (E)-3-(6-aminopyridin-3-yl)-N-((5-(5-(4,4-difluoropiperidine-1-carbonothioyl)pyridin-2-yl)-7-(trifluoromethyl)benzofuran-2-yl)methyl)acrylamide]
IC50 (Z138 cells; [4]): < 100 nM | IC50 (3T3 cells; [5]): > 10000 nM | IC50 (MS751 cells; [6]): < 100 nM | median tumor volume of Molt-4 xenografts (as a percentage of pre-dose tumor volume) (Molt-4 xenografts): tumor growth inhibition

Nc1ccc(/C=C/C(=O)NCc2cc3cc(-c4ccc(C(=O)N5CCOCC5)cc4)cc(Cl)c3o2)cn1 [Compound 502, (E)-3-(6-aminopyridin-3-yl)-N-((7-chloro-5-(4-(morpholine-4-carbonyl)phenyl)benzofuran-2-yl)methyl)acrylamide]
IC50 (HEP 3B cells): 100 to 5000 nM | IC50 (MRC-5 cells): 100 to 5000 nM | IC50 (Hep G2 cells): 100 to 5000 nM | IC50 (Z138 cells; [1]): 100 to 5000 nM | IC50 (3T3 cells; [2]): > 10000 nM | IC50 (MS751 cells; [3]): 100 to 5000 nM

Nc1ccc(/C=C/C(=O)NCc2cc3cc(-c4ccc(C(=O)N5CCOCC5)cn4)cc(C(F)(F)F)c3o2)cn1 [Compound 521, (E)-3-(6-aminopyridin-3-yl)-N-((5-(5-(morpholine-4-carbonyl)pyridin-2-yl)-7-(trifluoromethyl)benzofuran-2-yl)methyl)acrylamide]
IC50 (MDA-MB-231 cells): 100 to 5000 nM | IC50 (Z138 cells; [1]): < 100 nM | IC50 (3T3 cells; [2]): > 10000 nM | IC50 (MS751 cells; [3]): < 100 nM

Nc1ccc(/C=C/C(=O)NCc2cc3cc(-c4ccc(C(=O)N5CC[C@H](F)C5)cc4)cc(C(F)(F)F)c3o2)cn1 [Compound 525, (S,E)-3-(6-aminopyridin-3-yl)-N-((5-(4-(3-fluoropyrrolidine-1-carbonyl)phenyl)-7-(trifluoromethyl)benzofuran-2-yl)methyl)acrylamide]
IC50 (MM1S cells; MM1S cell line, read-out: MTT Assay IC50, MM1S): 100 to 5000 nM | IC50 (MM1S cells; MM1S cells, 72-hour MTT, read-out: MM1S MTT IC50): 310 nM | IC50 (HL-60 cells; HL-60 cell line, read-out: MTT Assay IC50, HL-60): 100 to 5000 nM | IC50 (HL-60 cells; HL-60 cells, 72-hour MTT, read-out: HL-60 MTT IC50): 1060 nM | IC50 (RPMI8226 cells; RPMI8226 cell line, read-out: MTT Assay IC50, RPMI8226): 100 to 5000 nM | IC50 (RPMI8226 cells; RPMI8226 cells, 72-hour MTT, read-out: RPMI8226 MTT IC50): 430 nM | PAK4 pathway signaling through Akt (phospho-Akt1) in tumors (MDA-MB-468 tumors): overall reductions | apoptosis (Apotag) in tumors (MDA-MB-468 tumors): increase | c-Myc in tumors (MDA-MB-468 tumors): overall reductions | proliferation (Ki67) in tumors (MDA-MB-468 tumors): reduction | IC50 (Z138 cells; Z-138, 72 h, Z-138 cells, 72-hour MTT, read-out: Z-138 MTT IC50): 100 nM | IC50 (Z138 cells; [1]): 100 to 5000 nM | IC50 (3T3 cells; NIH3T3, 72-hour MTT, read-out: 3T3 MTT IC50): > 10000 nM | IC50 (3T3 cells; [2]): > 10000 nM | IC50 (MS751 cells; MS751, 72 h, MS751 cells, 72-hour MTT, read-out: MS751 MTT IC50): 300 nM | IC50 (MS751 cells; [3]): 100 to 5000 nM

Source: patent publication US12331040B2 (Karyopharm Therapeutics Inc., priority 2013, dated 2025)
